Blank lines part the entries; values can stand above or below the compound they belong to.
Assays:
[1] = test system: Entamoeba histolytica Meah; assay: In vitro antiamebic activity by serial dilutions in monophasic Pavlova medium; format: cell-based; conditions: 48 hours, 37° C.; for minimal amoebicidal concentration, mean: mean of Dosage I-X
Experimental: The in vitro activity on Entamoeba histolytica Meah was determined on the products under test and on reference compounds, by the method of serial dilutions (ratio 1:1.5) in monophasic Pavlova medium with inoculation of 30,000 protozoa/ml and with incubation at 37° C. for 48 hours.
The level of activity of the compounds was determined by means of direct microscopical examination at 125 and 500 magnifications of the entire sediment of each culture. The results were expressed as minimal amoebicidal concentration in μg/ml.

[2] = Approximate acute toxicity (LD50) in the mouse, single administration per os; conditions: in vivo, po, measured on the seventh day
Experimental: The toxicity of the compounds of the invention is quite negligible. For example, for the compounds A and B mentioned in the foregoing Tables the approximate acute toxicity (LD50) in the mouse, determined with single administration of increasing doses and measured on the seventh day of treatment, was, per os, much higher than 800 mg/kg. Similar LD50 are found also for the other compounds of the invention, in particular for the compounds: […]

[3] = test system: Entamoeba histolytica Meah; assay: In vivo antiamebic activity in intestinal infection in the rat; set-up: species or system albino rats (strain:Wistar CFHB); key to Mean Score: mean score, 0 = no amoebae/ulceration to 5 = >half cecum ulcerated; conditions: for Mean Score: by gavage, 20 animals, score 0 (no amoebae, no ulceration) to 5, vehicle control 3.5; for ED50: Entamoeba histolytica, po, calculated on the number of animals with score = 0, rat, by gavage twice a day for 21/2 days
Experimental: The in vivo antiamebic activity in the intestinal infection was determined with a method similar to the method described by Jones (Ann.trop.Med.Paras., 40, 130-140, 1946), as reported hereunder. Young, specific pathogen free albino rats (strain:Wistar CFHB) weighing 30-35 g and fed on a low-protein diet, were infected by intracecal injection with a suspension of trophozoites of Entamoaba histolytica Meah (250,000/rat) containing 3% of Wilson […] mucin. The substances under test and the reference products were administered in serial doses, by gavage twice a day for 21/2 days. The therapeutic effect was determined on the fifth day after infection on the basis of the presence or absence of amebic ulcers in the cecal mucosa and of viable amoebae in the cecal mucosa and in the fecal content of the cecum.
Each animal was assigned a score, according to the following scale:
score 0=no amoebae, no ulceration;
score 1=from 1 to 20 amoebae per faecal smear; no amoeba in the scrape of caecal mucosa; no ulceration;
score 2=from 20 to a very large number of amoebae per smear of feces; no ameoba in the mucosal scrape; no ulceration;
score 3=amoebae originating from microscopic lesions of the cecal mucosa;
score 4=microscopic lesions of the cecal mucosa;
score 5=more than half the cecum ulcerated by amoebic lesions.
The antiamebic activity was expressed both as ED50 calculated according to the number of animals totally free of amoebae (score=0) and as mean score for each dose level.

Absorption = conditions: in vivo
[4] = test system: amoebae within the intestinal wall; assay: Activity on amoebae within the intestinal wall; conditions: in vivo

SMILES: CN(C(=O)C(Cl)Cl)c1ccc(OC(=O)c2ccco2)cc1 [Diloxanide furoate]
minimal amoebicidal concentration ([1]; Dosage I): 0.44 µg/mL
minimal amoebicidal concentration ([1]; Dosage II): 0.44 µg/mL
minimal amoebicidal concentration ([1]; Dosage III): 0.44 µg/mL
minimal amoebicidal concentration ([1]; Dosage IV): 0.29 µg/mL
minimal amoebicidal concentration ([1]; Dosage IX): 0.19 µg/mL
minimal amoebicidal concentration ([1]; Dosage V): 0.29 µg/mL
minimal amoebicidal concentration ([1]; Dosage VI): 0.19 µg/mL
minimal amoebicidal concentration ([1]; Dosage VII): 0.29 µg/mL
minimal amoebicidal concentration ([1]; Dosage VIII): 0.19 µg/mL
minimal amoebicidal concentration ([1]; Dosage X): 0.19 µg/mL
minimal amoebicidal concentration, mean [1]: 0.30 µg/mL

SMILES: CCOCCN(Cc1ccc(Oc2ccc(N)cc2)cc1)C(=O)C(Cl)Cl [Compound A, N-(β-ethoxy-ethyl)-N-[4-phenoxy-(4'-amino)-benzyl]-dichloroacetamide]
minimal amoebicidal concentration ([1]; Dosage I): 0.017 µg/mL
minimal amoebicidal concentration ([1]; Dosage II): 0.017 µg/mL
minimal amoebicidal concentration ([1]; Dosage III): 0.017 µg/mL
minimal amoebicidal concentration ([1]; Dosage IV): 0.026 µg/mL
minimal amoebicidal concentration ([1]; Dosage IX): 0.026 µg/mL
minimal amoebicidal concentration ([1]; Dosage V): 0.011 µg/mL
minimal amoebicidal concentration ([1]; Dosage VI): 0.011 µg/mL
minimal amoebicidal concentration ([1]; Dosage VII): 0.026 µg/mL
minimal amoebicidal concentration ([1]; Dosage VIII): 0.017 µg/mL
minimal amoebicidal concentration ([1]; Dosage X): 0.026 µg/mL
minimal amoebicidal concentration, mean [1]: 0.019 µg/mL
LD50 at 168 h [2]: > 800 mg/kg
Mean Score ([3]; 6.2 mg/kg × 5 times): 1.6
Mean Score ([3]; 12.5 mg/kg × 5 times): 1.1
Mean Score ([3]; 25 mg/kg × 5 times): 1.0
Mean Score ([3]; 50 mg/kg × 5 times): 0.5
ED50 [3]: 19 mg/kg

SMILES: CCOCCN(Cc1ccc(Oc2ccc([N+](=O)[O-])cc2)cc1)C(=O)C(Cl)Cl [Etofamide]
minimal amoebicidal concentration ([1]; Dosage I): 0.026 µg/mL
minimal amoebicidal concentration ([1]; Dosage II): 0.026 µg/mL
minimal amoebicidal concentration ([1]; Dosage III): 0.058 µg/mL
minimal amoebicidal concentration ([1]; Dosage IV): 0.058 µg/mL
minimal amoebicidal concentration ([1]; Dosage IX): 0.058 µg/mL
minimal amoebicidal concentration ([1]; Dosage V): 0.026 µg/mL
minimal amoebicidal concentration ([1]; Dosage VI): 0.017 µg/mL
minimal amoebicidal concentration ([1]; Dosage VII): 0.039 µg/mL
minimal amoebicidal concentration ([1]; Dosage VIII): 0.017 µg/mL
minimal amoebicidal concentration ([1]; Dosage X): 0.039 µg/mL
minimal amoebicidal concentration, mean [1]: 0.036 µg/mL
Mean Score ([3]; 6.2 mg/kg × 5 times): 3.3
Mean Score ([3]; 12.5 mg/kg × 5 times): 1.6
Mean Score ([3]; 25 mg/kg × 5 times): 1.3
Mean Score ([3]; 50 mg/kg × 5 times): 1.0
ED50 [3]: 29 mg/kg

absorption (Absorption): absorbed to a greater extent
SMILES: CCOCCN(Cc1ccc(Oc2ccc(NC(=O)CN)cc2)cc1)C(=O)C(Cl)Cl [N-(β-ethoxy-ethyl)-N-[4-phenoxy-(4'-glycinylamino)-benzyl]-dichloroacetamide]
activity on amoebae within the intestinal wall [4]: active on amoebae within the intestinal wall itself

SMILES: CCOCCN(Cc1ccc(Oc2ccc(NC(C)=O)cc2)cc1)C(=O)C(Cl)Cl [Compound B, N-(β-ethoxy-ethyl)-N-[4-phenoxy-(4'-acetamido)-benzyl]-dichloroacetamide]
minimal amoebicidal concentration ([1]; Dosage I): 0.004 µg/mL
minimal amoebicidal concentration ([1]; Dosage II): 0.005 µg/mL
minimal amoebicidal concentration ([1]; Dosage III): 0.007 µg/mL
minimal amoebicidal concentration ([1]; Dosage IV): 0.013 µg/mL
minimal amoebicidal concentration ([1]; Dosage IX): 0.017 µg/mL
minimal amoebicidal concentration ([1]; Dosage V): 0.017 µg/mL
minimal amoebicidal concentration ([1]; Dosage VI): 0.008 µg/mL
minimal amoebicidal concentration ([1]; Dosage VII): 0.003 µg/mL
minimal amoebicidal concentration ([1]; Dosage VIII): 0.026 µg/mL
minimal amoebicidal concentration ([1]; Dosage X): 0.017 µg/mL
minimal amoebicidal concentration, mean [1]: 0.011 µg/mL
LD50 at 168 h [2]: > 800 mg/kg

SMILES: CCOCCN(Cc1ccc(CN(CCOCC)C(=O)C(Cl)Cl)cc1)C(=O)C(Cl)Cl [Teclozan]
minimal amoebicidal concentration ([1]; Dosage I): 0.058 µg/mL
minimal amoebicidal concentration ([1]; Dosage II): 0.058 µg/mL
minimal amoebicidal concentration ([1]; Dosage III): 0.087 µg/mL
minimal amoebicidal concentration ([1]; Dosage IV): 0.058 µg/mL
minimal amoebicidal concentration ([1]; Dosage IX): 0.087 µg/mL
minimal amoebicidal concentration ([1]; Dosage V): 0.087 µg/mL
minimal amoebicidal concentration ([1]; Dosage VI): 0.058 µg/mL
minimal amoebicidal concentration ([1]; Dosage VII): 0.087 µg/mL
minimal amoebicidal concentration ([1]; Dosage VIII): 0.087 µg/mL
minimal amoebicidal concentration ([1]; Dosage X): 0.058 µg/mL
minimal amoebicidal concentration, mean [1]: 0.072 µg/mL
